# Patent publication US6841661B2, “Glycopeptide antibacterial compounds, compositions containing same and methods of using same” (Princeton Univerisity, priority 1999, dated 2005)
# Tests used:
# S. aureus MB 2985 = assay: MIC by microdilution in Mueller-Hinton broth (in vivo study); assay type: cell-based; conditions: Staphylococcus aureus, MB2985, inoculum 1.4 × 10^5 cfu/mL in cation adjusted MHB, read-out: MIC
# Protocol: The MIC is determined by microdilution in Mueller-Hinton broth (MHB) according to the National Committee for Clinical Laboratory Standards guidelines after incubation for 24 hours. Enterococci are tested in cation-supplemented Mueller-Hinton broth at 1.4×10^5 cfu/ml. MIC is defined as the lowest concentration of antibiotic, which inhibits visible growth.
# MRSA CL 3033 = assay: In vitro MIC panel assay (NCCLS broth microdilution); assay type: cell-based; conditions: Staphylococcus aureus
# Description: (§1) National Committee for Clinical Laboratory Standards (NCCLS) guidelines [Methods for Dilution Antimicrobial Susceptibility Tests for Bacteria that Grow Aerobically-Fourth Edition; Approved Standard (NCCLS Document M7-A4, January 1997)] are used to establish the assay, although variations are made to optimize the published method according to the specific needs of the present investigation.
# (§2) The test panel currently includes eight enterococci and 13 staphylococci, which are selected based upon their antibiotic susceptibility profiles. The methicillin-sensitive Staphylococcus aureus (MSSA) strain MB2985 (Smith isolate) is used to assesses the potential for serum protein binding of the compounds. The paired Gram-negative strains ASP #49 (envA-) and ASP #50 (envA+) (M. Salvatore/N. Lee) are included to judge membrane effects. Table 3 presents a detailed description of the strains included in the panel, including some of the sources of the strains of bacteria.
# (§3) The glycopeptide antibiotic teicoplanin is included whenever possible.
# (§4) TSB, containing 10% HS* for vancomycin intermediate S. aurcus/methicillin-resistant S. aureus (VISA/MRSA) strains, is inoculated from an appropriate source (frozen broth or agar slant) and grown approximately 17 hr at 35° C. with shaking at 220 rpm. Cultures are grown in tubes with a volume of 5 ml for enterococci and 2 ml for all other strains.
# (§5) Four milliliter (4 ml) overnight culture is added to 36 ml physiological saline to obtain tenfold dilutions (enterococci). Overnight culture (0.4 ml) is added to 39.6 ml saline to obtain 100-fold dilutions (all strains except enterococci). Diluted cultures are maintained on ice until time of inoculation of test plates.
# (§6) The number of CFU/mL is determined on BHI agar plates, although this is not done routinely because titers of overnight cultures are relatively constant. The test media include: • BHI for enterococci and VISA/MRSA; • MH II (i.e., cation-adjusted Mueller-Hinton broth) for MRS, MSS and E. coli.; • MH II+HSA for MSSA is prepared as follows: • a. 2×MHII+86mg/ml HSA • b. Dissolve 4.3 g HSA in 50 ml autoclaved 2x MH II. • c. pH to 7.0 by adding 2M MOPS, sodium. • d. Filter sterilize using 0.22 μm Coming cellulose acetate filter, used because of reported low protein binding. • e. 1×MH II+43 mg/ml HSA • f. Dilute the 2×medium twofold and filter as above. 5.8.6. Preparation of Test Plates
# (§7) Using a Denley liquid handling system (or similar automatic device), 100 μ1×medium is added to each well in columns 2-12 of a 96-well microtiter dish. Using a multichannel pipettor, 100 μl 2×medium is added to each well in column 1. Plates may be filled on the day prior to assay, wrapped in plastic bags and refrigerated.
# (§8) Vancomycin, Schering 29482, and teicoplanin are prepared on a weight per volume basis using 10 mM 3-(N-morpholino)propane-sulfonic acid (MOPS) buffer pH 7. Test compounds are received in solution in appropriate solvent (typically as 1 mg/ml in DMSO) or are dissolved in appropriate solvent prior to further dilution in 10 mM MOPS buffer, ph7. Consistent with NCCLS guidelines, antibiotics are handled aseptically but are not otherwise sterilized.
# (§9) 100 μl appropriately diluted antibiotic solution is added to the first well of the designated row of the 96-well microtiter dish and serially diluted by twofold across the row using the Denley liquid handling system. With the aid of a Dynatech NEC 2000 inoculator, each well of the microtiter dish is inoculated with 1.5 μl diluted overnight culture, yielding approximately 1-5×10^6 CFU/ml for enterococci and approximately 3-7×10^5 CFU/ml for all other strains. Dishes are placed in stacks of no more than five, wrapped in plastic bags and incubated at 35° C. • Indication of result(s) type (% INH, IC50, Zone size, etc.) • MIC=minimum inhibitory concentration ps 5.8.9. Interpretation of the Results on the Basis of Activity […]
# [1] = test system: E. faecalis CL 5244 (VanB); assay: as above; assay type: cell-based; conditions: Enterococcus faecalis
# Description: as §1, §2, §3, §4, §5, §6, §7, §8, §9
# E. faecium RLA1 = assay: as above; assay type: cell-based; conditions: Enterococcus faecium
# Description: as §1, §2, §3, §4, §5, §6, §7, §8, §9
# E. coli ASP #49 (envA-) = assay: as above; assay type: cell-based; conditions: Escherichia coli
# Description: as §1, §2, §3, §4, §5, §6, §7, §8, §9
# [2] = test system: E. gallinarum CL 4886 (VanC); assay: as above; assay type: cell-based; conditions: Enterococcus gallinarum
# Description: as §1, §2, §3, §4, §5, §6, §7, §8, §9
# MRCNS CL 202 (S. haem.) = assay: as above; assay type: cell-based
# Description: as §1, §2, §3, §4, §5, §6, §7, §8, §9
# MRSA COL = assay: as above; assay type: cell-based; conditions: Staphylococcus aureus
# Description: as §1, §2, §3, §4, §5, §6, §7, §8, §9
# MRCNS CL 3069 (S. epi.) = assay: as above; assay type: cell-based
# Description: as §1, §2, §3, §4, §5, §6, §7, §8, §9
# [3] = test system: E. faecium CL 5242 (VanA); assay: microbe, parasite or virus in culture; assay type: cell-based; conditions: for MIC, CL5242: E. faecium CL 5242 (VanA)
# Outline: (§10)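 NCCLS M7-A4-based broth microdilution with twofold serial dilutions, incubated at 35° C; medium BHI for enterococci and VISA/MRSA, cation-adjusted Mueller-Hinton for E. coli. Inoculum about 1-5×10^6 CFU/ml (enterococci) or 3-7×10^5 CFU/ml (others); MIC is lowest concentration with no visible growth, read at 18-20 hr for E. coli, 22-24 hr otherwise.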
# [4] = test system: E. faecium CL 4931 (VanA); assay: microbe, parasite or virus in culture; assay type: cell-based; conditions: for MIC, CL4931: E. faecium CL 4931 (VanA)
# Outline: as §10
# % Plasma Bound = assay type: in vitro ADME
# [5] = test system: MSSA MB2985 (Smith isolate); assay: In vitro MIC panel assay, without and with Human Serum Albumin; assay type: cell-based, Staphylococcus aureus
# Description: as §1, §2
# (§11) The glycopeptide antibiotic teicoplanin is included whenever possible. […]
# (§12) The number of CFU/mL is determined on BHI agar plates, although this is not done routinely because titers of overnight cultures are relatively constant. […]
# VISA/MRSA CL 5706 = assay: In vitro MIC panel assay (NCCLS broth microdilution); assay type: cell-based, S. aureus; conditions: Staphylococcus aureus
# Description: as §1, §2, §11, §12
# VISA/MRSA CL 5705 = assay: as above; assay type: cell-based, S. aureus; conditions: Staphylococcus aureus
# Description: as §1, §2, §11, §12
# [6] = test system: E. faecalis CL 4877 (VanB); assay: microbe, parasite or virus in culture; assay type: cell-based; conditions: for MIC, CL4877: E. faecalis CL 4877 (VanB)
# Outline: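 NCCLS-based microdilution, 35 °C. Media: BHI for VanB E. faecalis and VISA/MRSA, MH II for E. coli envA-. Inoculum: enterococci ~1-5×10^6 CFU/ml, others ~3-7×10^5 CFU/ml. Growth read at 22-24 hr (E. coli 18-20 hr).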
smiles,measurement,setting,value
"CN[C@H](CC(C)C)C(=O)N[C@H]1C(=O)N[C@@H](CC(N)=O)C(=O)N[C@H]2C(=O)N[C@H]3C(=O)N[C@H](C(=O)N[C@H](C(=O)O)c4cc(O)cc(O)c4-c4cc3ccc4O)[C@H](O)c3ccc(c(Cl)c3)Oc3cc2cc(c3O[C@@H]2O[C@H](CO)[C@@H](O)[C@H](O)[C@H]2O[C@H]2C[C@](C)(N)[C@H](O)[C@H](C)O2)Oc2ccc(cc2Cl)[C@H]1O [Vancomycin, vancomycin, reference compound]",MIC,S. aureus MB 2985,0.5 µg/mL
same,MIC,MRSA CL 3033,0.5 to 1 µg/mL
same,MIC,[1],32 µg/mL
same,MIC,E. faecium RLA1,2 µg/mL
same,MIC,E. coli ASP #49 (envA-),32 µg/mL
same,MIC,[2],16 µg/mL
same,MIC,MRCNS CL 202 (S. haem.),2 µg/mL
same,MIC,MRSA COL,1 µg/mL
same,MIC,MRCNS CL 3069 (S. epi.),2 µg/mL
same,MIC,[3]; Enterococcus faecium,128 µg/mL
same,"MIC, CL5242",[3]; Table 9,512 µg/mL
same,"MIC, CL5242",[3]; Table 10,512 µg/mL
same,CL5242 (in vitro testing),"[3]; Tables 7 and 8, unit not given",512
same,MIC,[4]; Enterococcus faecium,2050 µg/mL
same,"MIC, CL4931",[4]; Table 9,2050 µg/mL
same,"MIC, CL4931",[4]; Table 10,2050 µg/mL
same,CL4931 (in vitro testing),"[4]; Tables 7 and 8, unit not given",2048
same,% Plasma Bound,% Plasma Bound,55%
same,MIC,"[5]; MSSA MB2985 + HSA, MH II broth ctg. 43 mg/ml Human Serum Albumin Frac. V",1 µg/mL
same,N-fold MIC inc. + HSA,"[5]; MSSA MB2985, MIC with HSA relative to without",(1) fold
same,MIC,VISA/MRSA CL 5706,4 to 8 µg/mL
same,MIC,VISA/MRSA CL 5705,2 to 4 µg/mL
same,MIC,[6]; Enterococcus faecalis,2050 µg/mL
same,"MIC, CL4877",[6]; Table 9,2050 µg/mL
same,"MIC, CL4877",[6]; Table 10,2050 µg/mL
same,CL4877 (in vitro testing),"[6]; Tables 7 and 8, unit not given",2048
